Earlier results on two compounds are cited in patent publication US8293290B2, “Annatto extract compositions, including geranyl geraniols and methods of use” (American River Nutrition, Inc., priority 2003, dated 2012).

For data set [1] the following is noted: exogenous oral supplementation.
Another data set deals with prostate cancer patients. The settings on record: after one year of CoQ10 supplementation.
The next data set concerns the target T1, PPARγ (Mus musculus, UniProt P37238).
T1 construct: host or cells: 3T3-L1 adipocytes (from the cited title only)
T1 sequence (P37238 1-505): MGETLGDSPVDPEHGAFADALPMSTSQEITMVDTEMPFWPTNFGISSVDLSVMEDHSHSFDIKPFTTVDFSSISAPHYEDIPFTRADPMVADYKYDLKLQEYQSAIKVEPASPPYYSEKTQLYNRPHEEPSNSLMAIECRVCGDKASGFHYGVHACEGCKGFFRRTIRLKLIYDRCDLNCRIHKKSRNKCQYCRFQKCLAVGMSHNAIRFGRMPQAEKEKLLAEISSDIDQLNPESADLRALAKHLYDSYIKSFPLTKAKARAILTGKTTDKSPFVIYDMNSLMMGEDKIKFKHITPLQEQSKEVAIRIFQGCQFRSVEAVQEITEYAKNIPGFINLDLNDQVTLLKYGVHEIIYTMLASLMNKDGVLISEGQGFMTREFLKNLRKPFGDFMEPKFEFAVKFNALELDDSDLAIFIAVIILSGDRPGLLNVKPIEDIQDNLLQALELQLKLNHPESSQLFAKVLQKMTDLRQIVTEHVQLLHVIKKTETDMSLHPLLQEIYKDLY
Conditions: at the adipocytes.

Data set [2] concerns untransformed cells or normal cells.
In a further data set the target is T2, PPARα (Homo sapiens, UniProt Q07869).
T2 construct: host or cells: HepG2 hepatocytes (from the cited title only)
T2 sequence (Q07869 1-468): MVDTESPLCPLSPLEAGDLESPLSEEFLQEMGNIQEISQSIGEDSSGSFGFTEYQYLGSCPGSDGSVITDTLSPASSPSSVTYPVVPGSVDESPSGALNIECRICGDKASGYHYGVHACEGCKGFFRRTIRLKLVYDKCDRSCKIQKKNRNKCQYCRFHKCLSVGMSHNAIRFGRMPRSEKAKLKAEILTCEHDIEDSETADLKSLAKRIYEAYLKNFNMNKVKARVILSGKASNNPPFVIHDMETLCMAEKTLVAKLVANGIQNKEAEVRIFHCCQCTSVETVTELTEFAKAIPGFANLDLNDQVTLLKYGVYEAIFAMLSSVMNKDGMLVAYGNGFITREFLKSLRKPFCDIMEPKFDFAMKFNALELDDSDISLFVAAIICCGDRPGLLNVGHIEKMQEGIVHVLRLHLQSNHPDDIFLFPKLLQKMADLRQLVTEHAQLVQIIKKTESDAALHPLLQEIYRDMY
Conditions: at the hepatocytes.

Molecules are shown by their SMILES.

`COC1=C(OC)C(=O)C(C/C=C(\C)CC/C=C(\C)CC/C=C(\C)CC/C=C(\C)CC/C=C(\C)CC/C=C(\C)CC/C=C(\C)CC/C=C(\C)CC/C=C(\C)CCC=C(C)C)=C(C)C1=O` [CoQ10, coenzyme Q10]: the “fraction of supplemental CoQ10 absorbed” value in data set [1] is listed as “less than 5%”. Moreover, in the data set on prostate cancer patients, the “decrease of prostate mass” value was 47% and the “decrease of prostate specific antigen (PSA)” value is given as 71%.
As to `CC(C)=CCC/C(C)=C/CC/C(C)=C/CC/C(C)=C/CO` [GG, Geranyl geraniol], the PPARγ activation result on PPARγ is reported as “activates”. The “inhibition of cytochrome P450 enzymes (incl. CYP3A4)” value in the data set on cytochrome P450 enzymes is “does not inhibit”. Moreover, in data set [2], the “cytotoxicity (cell rounding, indicator of myotoxicity)” value is “not cytotoxic” and the “toxicity to untransformed cells or normal cells” value is given as “not toxic”. In addition, the PPARα activation result on PPARα was “activates”.
